Publication PMC6433232, “Targeting mitochondria in cancer therapy could provide a basis for the selective anti-cancer activity” (PLoS ONE, 2019)
Values joined by “and” are separate entries in the source; they are usually repeats but may differ in a detail not shown here. Identical values can stand only once. Like-named read-outs stand apart in the source and are kept apart here.

Test system: primary acute myeloid leukemia (AML) cells obtained from patients
Assay: Kinase inhibitor library screening with and without NSC130362, primary AML cells
Format: cell-based, Human
[1] = ratio of EC50 for inhibitor to EC50 for inhibitor/NSC130362 combination, NSC130362 10 μM, Screen N 1
[2] = ratio of EC50 for inhibitor to EC50 for inhibitor/NSC130362 combination, NSC130362 10 μM, Screen N 2
[3] = ratio of EC50 for inhibitor to EC50 for inhibitor/NSC130362 combination, NSC130362 10 μM, Screen N 3

SMILES | EC50 decrease, fold (Screen N 1) [1] | EC50 decrease, fold (Screen N 2) [2] | EC50 decrease, fold (Screen N 3) [3] | EC50 decrease, fold (Screen N 1) | EC50 decrease, fold (Screen N 2) | EC50 decrease, fold (Screen N 3)
Cc1ccc(-n2nc(C(C)(C)C)cc2NC(=O)Nc2ccc(OCCN3CCOCC3)c3ccccc23)cc1 [Doramapimod (BIRB 796)] | 0.15 fold | 1.0 fold | 511.2 fold |  |  | 
CC(C)C[C@H](NC(=O)[C@H](Cc1ccccc1)NC(=O)c1cnccn1)B(O)O [Velcade] |  |  |  | 0.457 fold | 0.468 fold | 0.0645 fold
COc1cc(OC)c(/C=C/S(=O)(=O)Cc2ccc(OC)c(NCC(=O)O)c2)c(OC)c1 [ON-01910] |  | 1.0 fold |  |  |  | 
Cc1[nH]c(/C=C2\C(=O)Nc3ccc(S(=O)(=O)N(C)c4cccc(Cl)c4)cc32)c(C)c1C(=O)N1CCN(C)CC1 [SU11274] | 11.9 fold | 1.0 fold | 0.000745 fold |  |  | 
O=c1cc(-c2cccc3c2Sc2ccccc2S3)oc(N2CCOCC2)c1 [KU-55933] | 0.222 fold | 1.0 fold | 959.3 fold |  |  | 
CC(C)n1nc(-c2ccc3oc(N)nc3c2)c2c(N)ncnc21 [INK-128] | 0.0632 fold | 0.9 fold | 0.0858 fold |  |  | 
CCOc1cc2ncc(C#N)c(Nc3ccc(OCc4ccccn4)c(Cl)c3)c2cc1NC(=O)/C=C/CN(C)C [Neratinib (HKI-272)] | 5.7 fold | 1.0 fold | 1.0 fold |  |  | 
NC(=O)c1ccc(-c2nc(-c3ccc4c(c3)OCO4)c(-c3ccccn3)[nH]2)cc1 [SB-431542] | 1.0 fold | 1.0 fold | 1058.2 fold |  |  | 
Cc1[nH]c2ccccc2c1CCNCc1ccc(/C=C/C(=O)NO)cc1 [Panobinostat] | 9.3 fold | 1.2 fold | 0.0014 fold |  |  | 
CCN(CCO)CCCOc1ccc2c(Nc3cc(CC(=O)Nc4cccc(F)c4)[nH]n3)ncnc2c1 [Barasertib (AZD1152-HQPA)] | 1.0 fold | 1.0 fold | 642.8 fold |  |  | 
Cc1ccc2nc(NCCN)c3ncc(C)n3c2c1 [BMS-345541] | 1.2 fold | 1.0 fold | 0.01 fold |  |  | 
CN(C)C/C=C/C(=O)Nc1cc2c(Nc3ccc(F)c(Cl)c3)ncnc2cc1O[C@H]1CCOC1 [Afatinib (BIBW-2992)] |  |  |  | 0.5 fold | 1.2 fold | 18.4 fold
COc1cc(Nc2ncc3c(n2)-c2ccc(Cl)cc2C(c2c(F)cccc2OC)=NC3)ccc1C(=O)O [Alisertib (MLN8237)] | 1.0 fold | 1.0 fold | 0.3 fold |  |  | 
O=C(Nc1cccc(C(F)(F)F)c1)Nc1cc(S(=O)(=O)NC2CC2)ccc1-c1ccsc1 [AGI-6780] | 1.0 fold | 1.0 fold | 17.0 fold |  |  | 
CN(C)C[C@@H]1CCn2cc(c3ccccc32)C2=C(C(=O)NC2=O)c2cn(c3ccccc23)CCO1 [LY-333531] | 3.3 fold | 1.0 fold | 1.1 fold |  |  | 
CCCCCCCCCCCCc1ccc(S(=O)(=O)Nc2nncs2)cc1 [PHT-427] | 1.0 fold | 1.0 fold | 1.0 fold |  |  | 
COc1cc2c(Oc3ccc4[nH]c(C)cc4c3F)ncnc2cc1OCCCN1CCCC1 [Cediranib (AZD2171)] | 8.3 fold | 1.0 fold | 0.00538 fold |  |  | 
C=CC(=O)Nc1cc2c(Nc3ccc(F)c(Cl)c3)ncnc2cc1OCCCN1CCOCC1 [Canertinib (CI-1033)] | 2.8 fold | 0.7 fold | 424.3 fold |  |  | 
CC(C)NC[C@@H](C(=O)N1CCN(c2ncnc3c2[C@H](C)C[C@H]3O)CC1)c1ccc(Cl)cc1 [Ipatasertib (GDC-0068)] |  | 1.0 fold |  |  |  | 
COc1cc2nccc(Oc3ccc(NC(=O)NC4CC4)c(Cl)c3)c2cc1C(N)=O [Lenvatinib] | 1.9 fold | 1.0 fold | 1.5 fold |  |  | 
C=CCNC1=C2C[C@@H](C)C[C@H](OC)[C@H](O)[C@@H](C)/C=C(\C)[C@H](OC(N)=O)[C@@H](OC)/C=C\C=C(/C)C(=O)NC(=CC1=O)C2=O [17-AAG (Tanespimycin)] | 10.6 fold | 12.1 fold | 612.9 fold |  |  | 
Cc1[nH]nc2ccc(-c3cncc(OC[C@@H](N)Cc4ccccc4)c3)cc12 [A-674563] | 3.1 fold | 1.2 fold | 6.2 fold |  |  | 

SMILES | EC50 decrease, fold (Screen N 1) [1] | EC50 decrease, fold (Screen N 2) [2] | EC50 decrease, fold (Screen N 3) [3] | EC50 decrease, fold (Screen N 1) | EC50 decrease, fold (Screen N 2) | EC50 decrease, fold (Screen N 3)
Cc1ccccc1C(C(=O)NC1CCCCC1)N(C(=O)Cn1ccnc1C)c1cccc(F)c1 (stereo not drawn) [AGI-5198] | 1.0 fold | 1.0 fold | 0.16 fold |  |  | 
C[C@H](NC(=O)Cc1cc(F)cc(F)c1)C(=O)N[C@@H]1C(=O)N(C)c2ccccc2-c2ccccc21 [DBZ] | 0.951 fold | 1.0 fold | 0.374 fold |  |  | 
Cc1nc(Nc2ncc(C(=O)Nc3c(C)cccc3Cl)s2)cc(N2CCN(CCO)CC2)n1 [Dasatinib] |  | 1.0 fold |  |  |  | 
C[C@@H](Oc1cc(-c2cnn(C3CCNCC3)c2)cnc1N)c1c(Cl)ccc(F)c1Cl [Crizotinib (PF-2341066)] |  |  |  | 11.4 fold and 6.3 fold | 1.0 fold | 
O=C(Nc1cccc2cccnc12)c1ccc(N2C(=O)[C@@H]3[C@H](C2=O)[C@@H]2C=C[C@H]3C2)cc1 [IWR1] |  | 1.0 fold |  |  |  | 
CC(=O)Nc1cccc(-n2c(=O)n(C3CC3)c(=O)c3c(Nc4ccc(I)cc4F)n(C)c(=O)c(C)c32)c1 [Trametinib (GSK1120212)] | 1.4 fold | 398.5 fold | 183.2 fold |  |  | 
Nc1nc(Nc2ccc(S(N)(=O)=O)cc2)nn1C(=O)c1c(F)cccc1F [JNJ-7706621] | 3.7 fold | 1.0 fold | 0.182 fold |  |  | 
Cc1ccc(F)c(NC(=O)Nc2ccc(-c3cccc4[nH]nc(N)c34)cc2)c1 [Linifanib (ABT-869)] | 261.0 fold | 1.4 fold | 1.0 fold |  |  | 
Cc1nc(-c2cn3c(n2)-c2ccc(-c4cnn(C(C)(C)C(N)=O)c4)cc2OCC3)n(C(C)C)n1 [Taselisib (GDC-0032)] |  | 2.8 fold |  |  |  | 
COc1c(Cl)cc2c([nH]c3cnccc32)c1NC(=O)c1cccnc1C [MLN120B] | 6.2 fold | 1.0 fold | 121.2 fold |  |  | 
Cn1cnc2c(F)c(Nc3ccc(Br)cc3Cl)c(C(=O)NOCCO)cc21 [Selumetinib (AZD6244)] | 6.5 fold | 1.5 fold | 1.0 fold |  |  | 
Cc1cc(Nc2cc(N3CCN(C)CC3)nc(Sc3ccc(NC(=O)C4CC4)cc3)n2)n[nH]1 [Tozasertib (VX-680)] | 7.5 fold | 1.0 fold | 0.9 fold |  |  | 
CC1(C)CCC(CN2CCN(c3ccc(C(=O)NS(=O)(=O)c4ccc(NCC5CCOCC5)c([N+](=O)[O-])c4)c(Oc4cnc5[nH]ccc5c4)c3)CC2)=C(c2ccc(Cl)cc2)C1 [ABT-199 (BH3 mimetic)] | 7.4 fold | 1.0 fold | 9.4 fold |  |  | 
O=C(NOCC1CC1)c1ccc(F)c(F)c1Nc1ccc(I)cc1Cl [CI-1040 (PD184352)] | 0.9 fold | 1.0 fold | 0.0667 fold |  |  | 
Oc1ccc([C@H]2COc3cc(O)ccc3C2)cc1 [AUS-131] |  | 1.0 fold |  |  |  | 
COc1cc(Oc2ccnc3cc(OC)c(OC)cc23)ccc1NC(=O)NC(C)c1nccs1 (stereo not drawn) [KI20227] | 0.6 fold | 1.0 fold | 1.0 fold |  |  | 
Clc1ccc(Nc2nnc(Cc3ccncc3)c3ccccc23)cc1 [Vatalanib (PTK787)] | 0.245 fold | 1.0 fold | 0.7 fold |  |  | 
CO[C@H]1C[C@@H]2CC[C@@H](C)[C@@](O)(O2)C(=O)C(=O)N2CCCC[C@H]2C(=O)O[C@H]([C@H](C)C[C@@H]2CC[C@@H](O)[C@H](OC)C2)CC(=O)[C@H](C)/C=C(\C)[C@@H](O)[C@@H](OC)C(=O)[C@H](C)C[C@H](C)/C=C/C=C/C=C/1C [Rapamycin] |  | 1.0 fold |  |  |  | 
Nc1ncnc2c1nc(Cl)n2[C@@H]1O[C@H](CO)[C@@H](O)[C@H]1O [8-cl-Adenosine] |  | 1.0 fold |  |  |  | 
Cc1noc2c1-c1ccccc1C(c1ccc(Cl)cc1)=N[C@H]2CC(N)=O [CPI-0610] |  | 0.8 fold |  |  |  | 
CCCCNc1ncc2c(-c3ccc(CN4CCN(C)CC4)cc3)cn(C3CCC(O)CC3)c2n1 (stereo not drawn) [UNC 2025A] |  | 1.0 fold |  |  |  | 
CCc1cc(Nc2nccc(-c3c(-c4ccc(OC)c(C(=O)Nc5c(F)cccc5F)c4)nc4ccccn34)n2)c(OC)cc1N1CCC(N2CCN(S(C)(=O)=O)CC2)CC1 [GSK-1904529A] | 41.6 fold | 1.0 fold | 44.8 fold |  |  | 
